Laboratory results published in patent US11078228B2, “Ectonucleotidase inhibitors and methods of use thereof” (Calithera Biosciences, Inc., priority 2018, dated 2021).

Molecular target: recombinant CD73 (Homo sapiens (Human), UniProt P21589)
Test: Assay 1: Inhibition of the CD73 enzyme in vitro (0.5 nM CD73, 30 min room temperature, Malachite Green)
Assay type: biochemical
Conditions: 0.5 nM CD73, 30 minutes at room temperature
Experimental: For measurements of soluble CD73 enzyme activity, recombinant CD73 was obtained from R&D Systems, Cat. No. 5795-EN-010. […] Reactions were allowed to proceed for 30 minutes at room temperature before the addition of 100 μL Malachite Green (Cell Signaling Technology, Cat. No. 12776). After 5 minutes at room temperature, absorbance at 630 nm was determined on a microplate spectrophotometer. The concentration of inorganic phosphate was determined using a phosphate standard curve.

Sequence of recombinant CD73 (P21589 27-547): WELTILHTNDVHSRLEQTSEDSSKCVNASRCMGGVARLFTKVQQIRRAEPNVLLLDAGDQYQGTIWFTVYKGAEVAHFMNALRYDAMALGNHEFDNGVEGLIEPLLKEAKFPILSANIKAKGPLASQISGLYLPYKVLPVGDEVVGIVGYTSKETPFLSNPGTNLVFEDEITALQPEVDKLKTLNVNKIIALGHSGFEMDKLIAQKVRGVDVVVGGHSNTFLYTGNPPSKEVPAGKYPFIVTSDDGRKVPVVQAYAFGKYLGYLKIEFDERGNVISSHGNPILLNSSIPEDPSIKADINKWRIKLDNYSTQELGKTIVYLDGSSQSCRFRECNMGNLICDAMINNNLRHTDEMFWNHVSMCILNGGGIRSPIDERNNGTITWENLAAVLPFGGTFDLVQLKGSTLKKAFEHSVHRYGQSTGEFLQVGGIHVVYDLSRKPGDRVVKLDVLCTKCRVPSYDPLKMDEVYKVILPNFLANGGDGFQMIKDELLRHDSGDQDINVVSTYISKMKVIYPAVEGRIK

| IC50 | SMILES |
| --- | --- |
| 4 nM | C#C[C@@]1(O)[C@@H](COC(Cc2cccc(OC)c2)(C(=O)O)C(=O)O)O[C@@H](n2cnc3c(N)nc(Cl)nc32)[C@@H]1O [Example 52, 2-(((2R,3S,4R,5R)-5-(6-amino-2-chloro-9H-purin-9-yl)-3-ethynyl-3,4-dihydroxytetrahydrofuran-2-yl)methoxy)-2-(3-methoxybenzyl)malonic acid] |
| 35 nM | CC[C@@]1(O)[C@@H](COC(C(=O)O)C(=O)O)O[C@@H](n2cnc3c(N)nc(Cl)nc32)[C@@H]1O [Example 55, 2-(((2R,3S,4R,5R)-5-(6-amino-2-chloro-9H-purin-9-yl)-3-ethyl-3,4-dihydroxytetrahydrofuran-2-yl)methoxy)malonic acid] |
| 1 nM | C#C[C@@]1(O)[C@@H](COC(Cc2ccccc2)(C(=O)O)C(=O)O)O[C@@H](n2cnc3c(NCc4ccccc4)nc(Cl)nc32)[C@@H]1O [Example 59, 2-benzyl-2-(((2R,3S,4R,5R)-5-(6-(benzylamino)-2-chloro-9H-purin-9-yl)-3-ethynyl-3,4-dihydroxytetrahydrofuran-2-yl)methoxy)malonic acid] |
| 3 nM | C#C[C@@]1(O)[C@@H](COC(Cc2ccccc2)(C(=O)O)C(=O)O)O[C@@H](n2cnc3c(NC4CCOCC4)nc(Cl)nc32)[C@@H]1O [Example 60, 2-benzyl-2-(((2R,3S,4R,5R)-5-(2-chloro-6-((tetrahydro-2H-pyran-4-yl)amino)-9H-purin-9-yl)-3-ethynyl-3,4-dihydroxytetrahydrofuran-2-yl)methoxy)malonic acid] |
| 1.5 nM | C#C[C@@]1(O)[C@@H](COC(Cc2ccccc2)(C(=O)O)C(=O)O)O[C@@H](n2cnc3c(NCCN(CC)CC)nc(Cl)nc32)[C@@H]1O [Example 61, 2-benzyl-2-(((2R,3S,4R,5R)-5-(2-chloro-6-((2-(diethylamino)ethyl)-amino)-9H-purin-9-yl)-3-ethynyl-3,4-dihydroxytetrahydrofuran-2-yl)methoxy)-malonic acid] |
| 0.9 nM | C#C[C@@]1(O)[C@@H](COC(Cc2ccccc2)(C(=O)O)C(=O)O)O[C@@H](n2cnc3c(N4CCCC4)nc(Cl)nc32)[C@@H]1O [Example 90, 2-benzyl-2-(((2R,3S,4R,5R)-5-(2-chloro-6-(pyrrolidin-1-yl)-9H-purin-9-yl)-3-ethynyl-3,4-dihydroxytetrahydrofuran-2-yl)methoxy)malonic acid] |
| 0.3 nM | C#C[C@@]1(O)[C@@H](COC(Cc2ccccc2)(C(=O)O)C(=O)O)O[C@@H](n2cnc3c(NC4CCCC4)nc(Cl)nc32)[C@@H]1O [Example 91, 2-benzyl-2-(((2R,3S,4R,5R)-5-(2-chloro-6-(cyclopentylamino)-9H-purin-9-yl)-3-ethynyl-3,4-dihydroxytetrahydrofuran-2-yl)methoxy)malonic acid] |
| 0.8 nM | C#C[C@@]1(O)[C@@H](COC(Cc2ccccc2)(C(=O)O)C(=O)O)O[C@@H](n2cnc3c(NCC4CC4)nc(Cl)nc32)[C@@H]1O [Example 92, 2-benzyl-2-(((2R,3S,4R,5R)-5-(2-chloro-6-((cyclopropylmethyl)amino)-9H-purin-9-yl)-3-ethynyl-3,4-dihydroxytetrahydrofuran-2-yl)methoxy)malonic acid] |
| 1.7 nM | C#C[C@@]1(O)[C@@H](COC(Cc2ccccc2)(C(=O)O)C(=O)O)O[C@@H](n2cnc3c(NC(C)C)nc(Cl)nc32)[C@@H]1O [Example 93, 2-benzyl-2-(((2R,3S,4R,5R)-5-(2-chloro-6-(isopropylamino)-9H-purin-9-yl)-3-ethynyl-3,4-dihydroxytetrahydrofuran-2-yl)methoxy)malonic acid] |
| 331 nM | C#C[C@@]1(O)[C@@H](COC(C(=O)O)C(=O)N2CCCC2)O[C@@H](n2cnc3c(N)nc(Cl)nc32)[C@@H]1O (stereo partly drawn) [Example 113, 2-(((2R,3S,4R,5R)-5-(6-amino-2-chloro-9H-purin-9-yl)-3-ethynyl-3,4-dihydroxytetrahydrofuran-2-yl)methoxy)-3-oxo-3-(pyrrolidin-1-yl)propanoic acid] |
| 177 nM | C#C[C@@]1(O)[C@@H](COC(C(=O)O)C(=O)N2CCCC2)O[C@@H](n2cnc3c(NC4CCCC4)nc(Cl)nc32)[C@@H]1O (stereo partly drawn) [Example 114, 2-(((2R,3S,4R,5R)-5-(2-chloro-6-(cyclopentylamino)-9H-purin-9-yl)-3-ethynyl-3,4-dihydroxytetrahydrofuran-2-yl)methoxy)-3-oxo-3-(pyrrolidin-1-yl)propanoic acid] |
| 135 nM | C#C[C@@]1(O)[C@@H](COC(C(N)=O)C(=O)O)O[C@@H](n2cnc3c(NC4CCCC4)nc(Cl)nc32)[C@@H]1O (stereo partly drawn) [Example 115, 3-amino-2-(((2R,3S,4R,5R)-5-(2-chloro-6-(cyclopentylamino)-9H-purin-9-yl)-3-ethynyl-3,4-dihydroxytetrahydrofuran-2-yl)methoxy)-3-oxopropanoic acid] |
| 8050 nM | C#C[C@@]1(O)[C@@H](COC(C(N)=O)C(N)=O)O[C@@H](n2cnc3c(NC4CCCC4)nc(Cl)nc32)[C@@H]1O [Example 116, 2-(((2R,3S,4R,5R)-5-(2-chloro-6-(cyclopentylamino)-9H-purin-9-yl)-3-ethynyl-3,4-dihydroxytetrahydrofuran-2-yl)methoxy)malonamide] |
| 4630 nM | C#C[C@@]1(O)[C@@H](COC(C(=O)O)S(C)(=O)=O)O[C@@H](n2cnc3c(NC4CCCC4)nc(Cl)nc32)[C@@H]1O (stereo partly drawn) [Example 120, 2-(((2R,3S,4R,5R)-5-(2-chloro-6-(cyclopentylamino)-9H-purin-9-yl)-3-ethynyl-3,4-dihydroxytetrahydrofuran-2-yl)methoxy)-2-(methylsulfonyl)acetic acid] |
| 71 nM | C#C[C@@]1(O)[C@@H](COC(C(=O)OC)P(=O)(O)O)O[C@@H](n2cnc3c(N)nc(Cl)nc32)[C@@H]1O (stereo partly drawn) [Example 123, (1-(((2R,3S,4R,5R)-5-(6-amino-2-chloro-9H-purin-9-yl)-3-ethynyl-3,4-dihydroxytetrahydrofuran-2-yl)methoxy)-2-methoxy-2-oxoethyl)phosphonic acid] |
| 27 nM | C#C[C@@]1(O)[C@@H](COC(C(=O)OCC)P(=O)(O)O)O[C@@H](n2cnc3c(N4CCOCC4)nc(Cl)nc32)[C@@H]1O (stereo partly drawn) [Example 124, (1-(((2R,3S,4R,5R)-5-(2-chloro-6-morpholino-9H-purin-9-yl)-3-ethynyl-3,4-dihydroxytetrahydrofuran-2-yl)methoxy)-2-ethoxy-2-oxoethyl)phosphonic acid] |
| 1580 nM | C#C[C@@]1(O)[C@@H](COC(C(=O)O)S(=O)(=O)c2ccccc2)O[C@@H](n2cnc3c(NC4CCCC4)nc(Cl)nc32)[C@@H]1O (stereo partly drawn) [Example 129, 2-(((2R,3S,4R,5R)-5-(2-chloro-6-(cyclopentylamino)-9H-purin-9-yl)-3-ethynyl-3,4-dihydroxytetrahydrofuran-2-yl)methoxy)-2-(phenylsulfonyl)acetic acid] |
| 320 nM | C#C[C@@]1(O)[C@@H](COC(C(=O)O)c2cscn2)O[C@@H](n2cnc3c(N)nc(Cl)nc32)[C@@H]1O (stereo partly drawn) [Example 179, 2-(((2R,3S,4R,5R)-5-(6-amino-2-chloro-9H-purin-9-yl)-3-ethynyl-3,4-dihydroxytetrahydrofuran-2-yl)methoxy)-2-(thiazol-4-yl)acetic acid] |
| 24 nM | C#C[C@@]1(O)[C@@H](COC(Cc2cccc(C(=O)O)c2)(C(=O)O)c2cscn2)O[C@@H](n2cnc3c(N)nc(Cl)nc32)[C@@H]1O (stereo partly drawn) [Example 182, 3-(2-(((2R,3S,4R,5R)-5-(6-amino-2-chloro-9H-purin-9-yl)-3-ethynyl-3,4-dihydroxytetrahydrofuran-2-yl)methoxy)-2-carboxy-2-(thiazol-4-yl)ethyl)benzoic acid] |
| 56 nM | C#C[C@@]1(O)[C@@H](COC(Cc2cccc(OC(F)(F)F)c2)(C(=O)O)c2cscn2)O[C@@H](n2cnc3c(N)nc(Cl)nc32)[C@@H]1O (stereo partly drawn) [Example 183, 2-(((2R,3S,4R,5R)-5-(6-amino-2-chloro-9H-purin-9-yl)-3-ethynyl-3,4-dihydroxytetrahydrofuran-2-yl)methoxy)-2-(thiazol-4-yl)-3-(3-(trifluoromethoxy)phenyl)propanoic acid] |
| 10 nM | C#C[C@@]1(O)[C@@H](CO[C@](Cc2ccccc2)(C(=O)O)c2cscn2)O[C@@H](n2cnc3c(NC)nc(Cl)nc32)[C@@H]1O [Example 187, (S)-2-(((2R,3S,4R,5R)-5-(2-chloro-6-(methylamino)-9H-purin-9-yl)-3-ethynyl-3,4-dihydroxytetrahydrofuran-2-yl)methoxy)-3-phenyl-2-(thiazol-4-yl)propanoic acid] |
| 134 nM | C#C[C@@]1(O)[C@@H](CO[C@@](Cc2ccccc2)(C(=O)O)c2cscn2)O[C@@H](n2cnc3c(NC)nc(Cl)nc32)[C@@H]1O [Example 188, (R)-2-(((2R,3S,4R,5R)-5-(2-chloro-6-(methylamino)-9H-purin-9-yl)-3-ethynyl-3,4-dihydroxytetrahydrofuran-2-yl)methoxy)-3-phenyl-2-(thiazol-4-yl)propanoic acid] |
| 7 nM | C#C[C@@]1(O)[C@@H](CO[C@](Cc2ccccc2)(C(=O)O)c2nnn[nH]2)O[C@@H](n2cnc3c(N)nc(Cl)nc32)[C@@H]1O [Example 191, (S)-2-(((2R,3S,4R,5R)-5-(6-amino-2-chloro-9H-purin-9-yl)-3-ethynyl-3,4-dihydroxytetrahydrofuran-2-yl)methoxy)-3-phenyl-2-(1H-tetrazol-5-yl)propanoic acid] |
| 25 nM | C#C[C@@]1(O)[C@@H](CO[C@@](Cc2ccccc2)(C(=O)O)c2nnn[nH]2)O[C@@H](n2cnc3c(N)nc(Cl)nc32)[C@@H]1O [Example 192, (R)-2-(((2R,3S,4R,5R)-5-(6-amino-2-chloro-9H-purin-9-yl)-3-ethynyl-3,4-dihydroxytetrahydrofuran-2-yl)methoxy)-3-phenyl-2-(1H-tetrazol-5-yl)propanoic acid] |

| SMILES | IC50 |
| --- | --- |
| C#CCC(OC[C@H]1O[C@@H](n2cnc3c(N)nc(Cl)nc32)[C@H](O)[C@@]1(O)C#C)(C(=O)O)c1cscn1 (stereo partly drawn) [Example 184, 2-(((2R,3S,4R,5R)-5-(6-amino-2-chloro-9H-purin-9-yl)-3-ethynyl-3,4-dihydroxytetrahydrofuran-2-yl)methoxy)-2-(thiazol-4-yl)pent-4-ynoic acid] | 102 nM |
